US20260317272A1, “USE OF STROBILURIN TYPE COMPOUNDS FOR COMBATING PHYTOPATHOGENIC FUNGI CONTAINING AN AMINO ACID SUBSTITION F129L IN THE MITOCHONDRIAL CYTOCHROME B PROTEIN CONFERRING RESISTANCE TO QO INHIBITORS XVI” (priority 2023, published 2026)

Columns and labels:
[1] = tested on: Phakopsora pachyrhizi; assay: Use Example 14: activity against Asian soybean rust under semi field conditions; type: in vivo; settings: 100 g a.i./ha; for Efficacy, % / B14 Efficacy, %: Abbot's formula; for Efficacy, %: B14; for infection rate, %: B14 (14 days after second application); for B14 Efficacy, % / B14 infection rate, %: 14 days after second application, semi field, Brazil; for B14 infection rate, %: sprayed twice, 14 day interval
Procedure: Use Example 14. Activity Against Asian Soybean Rust (Phakopsora pachyrhizi) Under Semi Field Conditions
Soybeans were grown in an area covered with an insect proof net under natural temperature and light regime in Brazil. Seeds were sown in a tray, allowed to germinate and grow for 14-23 days, and afterwards transplanted to containers. Subsequently, the plants were grown for another 27-35 days before spray application.
The soybean plants were sprayed twice at a spray interval of 14 days. The spray solutions were prepared by mixing experimental formulations (100 g/l SC), in water, adding the adjuvant Mees™ (BASF, soybean oil methyl ester 824.3 g/L, EC) at 0.5 I/ha. The plants were sprayed in a mobile spray cabinet with a horizontal boom. The spray solutions were applied with 500 L/ha spray volume with a flat fan nozzle.
The plants were inoculated with natural population of Phakopsora pachyrhizi spore suspension one day after each spray application. Plants were incubated in a mobile chamber with a misting system at saturated humidity following each inoculation.
Soybean rust infestation was assessed as percent infected leaf area at 14 days after second application (B14). These percent values were converted in efficacies. The efficacy (E) was calculated as follows using Abbot's formula: […]

[2] = tested on: Puccinia striiformis; assay: Use Example 10: preventative control of wheat stripe rust on wheat (PUCCST P7); type: in vivo; settings: 16 ppm, untreated 90%
Procedure: (§1) The compound was dissolved in a mixture of acetone and/or dimethylsulfoxide and the wetting agent/emulsifier Wettol, which is based on ethoxylated alkylphenoles, in a ratio (volume) solvent-emulsifier of 99 to 1 to give a total volume of 5 ml. Subsequently, water was added to total volume of 100 ml. This stock solution was then diluted with the described solvent-emulsifier-water mixture to the final concentration given in the tables below.
Use Example 10. Preventative Control of Wheat Stripe Rust on Wheat Caused by Puccinia striiformis (PUCCST P7)
The first two developed leaves of potted wheat seedling were sprayed to run-off with previously described spray solution, containing the concentration of active ingredient or their mixture as described below. Seven days later the plants were inoculated with spores of Puccinia striiformis. To ensure the success of the artificial inoculation, the plants were transferred to a chamber without light and a temperature of 5° C. for 24 h. Then the trial plants were cultivated for up to 14 days in a greenhouse chamber at 16° C. and a relative humidity of minimum 75%. The extent of fungal attack on the leaves was visually assessed as % diseased leaf area.

[3] = tested on: Pyrenophora teres; assay: Use Example 11: control of net blotch on barley (PYRNTE P1); type: in vivo, Pyrenophora (syn. Drechslera) teres; settings: F129L strain, inoculated the next day, 16 ppm, untreated 75%
Procedure: as §1
Use Example 11. Control of Net Blotch on Barley Caused by Pyrenophora teres (PYRNTE P1)
The first fully developed leaves of potted barley plants were sprayed to run-off previously described spray solution, containing the concentration of active ingredient or their mixture mentioned in the table below. The next day the treated plants were inoculated with an aqueous spore suspension Pyrenophora (syn. Drechslera) teres. The strain used contains the amino acid substitution F129L in the mitochondrial cytochrome b protein conferring resistance to Qo inhibitors. Then the trial plants were cultivated for up to 19 days at 20-24° C. and a relative humidity close to 70%, the extent of fungal attack on the leaves was visually assessed as % diseased leaf area.

[4] = tested on: Puccinia triticina; assay: Use Example 6: preventative control of brown rust on wheat (PUCCRT P7); type: in vivo, Puccinia triticina (syn. P. recondita); settings: 16 ppm, seven days before inoculation, 9 to 12 days, untreated 85
Procedure: as §1
Use Example 6. Preventative Control of Brown Rust on Wheat Caused by Puccinia triticina (Syn. P. recondita) (PUCCRT P7)
The first two developed leaves of potted wheat seedling were sprayed to run-off with previously described spray solution, containing the concentration of active ingredient or their mixture as described below. Seven days later the plants were dusted with spores of Puccinia triticina. To ensure the success of the artificial inoculation, the plants were transferred to a humid chamber without light and a relative humidity of 95 to 99% and 20 to 24° C. for 24 h. Then the trial plants were cultivated for 9 to 12 days in a greenhouse chamber at 20 to 24° C. and a relative humidity between 65 and 70%. The extent of fungal attack on the leaves was visually assessed as % diseased leaf area.

[5] = tested on: Phakopsora pachyrhizi; assay: Use Example 5: protective control of soybean rust on soybeans (PHAKPA P9); type: in vivo; settings: 16 ppm, 9 days before inoculation, F129L strain, up to 14 days, untreated 85
Procedure: as §1
Use Example 5. Protective Control of Soybean Rust on Soybeans Caused by Phakopsora pachyrhizi (PHAKPA P9)
Leaves of potted soybean seedlings were sprayed to run-off with the previously described spray solution, containing the concentration of active ingredient or their mixture as described below. The plants were allowed to air-dry. The trial plants were cultivated for 9 days in a greenhouse chamber at 23-27° C. and a relative humidity between 60 and 80%. Then the plants were inoculated with spores of Phakopsora pachyrhizi. The strain used contains the amino acid substitution F129L in the mitochondrial cytochrome b protein conferring resistance to Qo inhibitors. To ensure the success of the artificial inoculation, the plants were transferred to a humid chamber with a relative humidity of about 95% and 20 to 24° C. for 24 h. The trial plants were cultivated for up to 14 days in a greenhouse chamber at 23-27° C. and a relative humidity between 60 and 80%. The extent of fungal attack on the leaves was visually assessed as % diseased leaf area.

[6] = tested on: Puccinia triticina; assay: Use Example 15: activity against Puccinia triticina (PUCCRT, brown rust on wheat) in field; type: in vivo; settings: for Efficacy, %: Abbot's formula, B23; for infection rate, %: B23 (23 days after second treatment), flag leaf
Procedure: Use Example 15. Activity Against Puccinia triticina (PUCCRT, Brown Rust on Wheat) in Field
Trials were conducted under field conditions in Spain. Spring wheat was planted and grown with adequate supply of water and nutrients. Two applications (A and B) of the test compounds were made at onset of disease (application A) and at second application at an interval of 22 days (application B). The spray solutions were prepared by mixing experimental formulations of the test compounds (50 g/L EC) in water, adding 124 g/ha Plurafac LF301 and Plurafac LF1312 (BASF, low-foaming non-ionic surfactants consisting of alkoxylated, predominantly unbranched fatty alcohols containing higher alkene oxides alongside ethylene oxide), respectively. The spray solutions were applied with 300 I/ha spray volume with a flat fan nozzle.
The infestation levels for brown rust (Puccinia triticina) were evaluated 23 days after the second fungicide treatment (B23), a mean value across the flag leaf level was calculated. In addition, efficacy was calculated using Abbot's formula as in use example 14.

[7] = Table 8, 75 g a.i./ha, untreated infection 75%
[8] = Table 8, 150 g a.i./ha, untreated infection 75%
[9] = Table 8, 75 g a.i./ha, untreated 75%
[10] = Table 8, 150 g a.i./ha, untreated 75%
[11] = Table 3, untreated infection 56

For `CO/C=C(/C(=O)OC)c1cccc(C)c1CO/N=C(\COC)c1ccc(F)cc1Cl` [Compound 3], the “Efficacy, %” value ([1]; Table 5, untreated infection 71%) was 56%, the “infection rate, %” value ([1]; Table 5, untreated 71%) was 31% and the “Diseased leaf area (%)” value [2] was 0%. For the same compound, the “Diseased leaf area (%)” value [3] was 3%, the “Diseased leaf area (%)” value [4] was 9% and the “Diseased leaf area (%)” value [5] was 0%. The “Efficacy, %” value ([6]; Table 9, 75 g a.i./ha, untreated infection 74%) was 66%, the “Efficacy, %” value ([6]; Table 9, 150 g a.i./ha, untreated infection 74%) was 73% and the “infection rate, %” value ([6]; Table 9, 75 g a.i./ha, untreated 74%) was 25%. The “infection rate, %” value ([6]; Table 9, 150 g a.i./ha, untreated 74%) was 20%.

In the case of `CO/C=C(/C(=O)OC)c1cccc(C)c1CO/N=C(\COC)c1c(F)cc(F)cc1F` [Compound 4, methyl (E)-3-methoxy-2-[2-[[(Z)-[2-methoxy-1-(2,4,6-trifluorophenyl)ethylidene]amino]oxymethyl]-3-methyl-phenyl]prop-2-enoate], the “Efficacy, %” value ([1]; Table 6, untreated infection 62%) was 66%, the “infection rate, %” value ([1]; Table 6, untreated 62%) was 21% and the “Diseased leaf area (%)” value [2] was 0%. For the same compound, the “Diseased leaf area (%)” value [3] was 5%, the “Diseased leaf area (%)” value [4] was 7% and the “Diseased leaf area (%)” value [5] was 0%. For the same compound, the “Efficacy, %” value [6, 7] was 95%, the “Efficacy, %” value [6, 8] was 97% and the “infection rate, %” value [6, 9] was 4%. The “infection rate, %” value [6, 10] was 2%.

In the case of `COC/C(=N\OCc1c(C)cccc1/C(=N\OC)C(=O)OC)c1c(F)cc(F)cc1F` [Compound 2, methyl (2E)-2-methoxyimino-2-[2-[[(Z)-[2-methoxy-1-(2,4,6-trifluorophenyl)ethylidene]amino]oxymethyl]-3-methyl-phenyl]acetate], the “B14 Efficacy, %” value ([1]; Table 4, untreated infection 52) was 54%, the “B14 infection rate, %” value ([1]; Table 4, untreated 52) was 24% and the “Diseased leaf area (%)” value [2] was 11%. For the same compound, the “Diseased leaf area (%)” value [3] was 6%, the “Diseased leaf area (%)” value [5] was 2% and the “Efficacy, %” value [6, 7] was 23%. The “Efficacy, %” value [6, 8] was 40%, the “infection rate, %” value [6, 9] was 58% and the “infection rate, %” value [6, 10] was 45%.

In the case of `CNC(=O)/C(=N/OC)c1cccc(C)c1CO/N=C(\COC)c1ccc(F)c(F)c1` [Compound 5, (2E)-2-[2-[[(Z)-[1-(3,4-difluorophenyl)-2-methoxy-ethylidene]amino]oxymethyl]-3-methylphenyl]-2-methoxyimino-N-methyl-acetamide], the “B14 Efficacy, %” value [1, 11] was 57%, the “B14 infection rate, %” value ([1]; Table 3, untreated 56) was 24% and the “Diseased leaf area (%)” value [2] was 7%. For the same compound, the “Diseased leaf area (%)” value [3] was 3%, the “Diseased leaf area (%)” value [4] was 6% and the “Diseased leaf area (%)” value [5] was 1%. The “Efficacy, %” value ([6]; Table 10, 75 g a.i./ha, untreated infection 50%) was 84%, the “Efficacy, %” value ([6]; Table 10, 150 g a.i./ha, untreated infection 50%) was 92% and the “infection rate, %” value ([6]; Table 10, 75 g a.i./ha, untreated 50%) was 8%. For the same compound, the “infection rate, %” value ([6]; Table 10, 150 g a.i./ha, untreated 50%) was 4%.

`CNC(=O)/C(=N/OC)c1cccc(C)c1CO/N=C(\COC)c1c(F)cc(F)cc1F` [Compound 1, (2E)-2-methoxyimino-2-[2-[[(Z)-[2-methoxy-1-(2,4,6-trifluorophenyl)ethylidene]amino]oxymethyl]-3-methyl-phenyl]-N-methyl-acetamide] was tested, and the “B14 Efficacy, %” value [1, 11] was 57%, the “B14 infection rate, %” value ([1]; Table 3, untreated 56) was 24% and the “Diseased leaf area (%)” value [2] was 13%. The “Diseased leaf area (%)” value [3] was 5%, the “Diseased leaf area (%)” value [4] was 10% and the “Diseased leaf area (%)” value [5] was 0%. For the same compound, the “Efficacy, %” value [6, 7] was 60%, the “Efficacy, %” value [6, 8] was 89% and the “infection rate, %” value [6, 9] was 30%. The “infection rate, %” value [6, 10] was 8%.

With `CNC(=O)/C(=N/OC)c1cccc(C)c1CO/N=C(\COC)c1c(F)cc(OC)cc1F` [Compound 7, (2E)-2-[2-[[(Z)-[1-(2,6-difluoro-4-methoxy-phenyl)-2-methoxy-ethylidene]amino]oxymethyl]-3-methyl-phenyl]-2-methoxyimino-N-methyl-acetamide] the “Efficacy, %” value ([1]; Table 7, untreated infection 63%) was 40%, the “infection rate, %” value ([1]; Table 7, untreated 63%) was 38% and the “Diseased leaf area (%)” value [2] was 0%. For the same compound, the “Diseased leaf area (%)” value [4] was 6%, the “Diseased leaf area (%)” value [5] was 1% and the “Efficacy, %” value [6, 7] was 92%. For the same compound, the “Efficacy, %” value [6, 8] was 97%, the “infection rate, %” value [6, 9] was 6% and the “infection rate, %” value [6, 10] was 2%.
